From PMC10051292, “Neoprzewaquinone A Inhibits Breast Cancer Cell Migration and Promotes Smooth Muscle Relaxation by Targeting PIM1 to Block ROCK2/STAT3 Pathway” (International Journal of Molecular Sciences, 2023)

Target: PIM1 (Homo sapiens, UniProt P11309)
Test: ADP-Glo in vitro kinase assay; supported by CETSA western blot in MDA-MB-231 (about […] °C stabilization)
Type: biochemical

Sequence of PIM1 (P11309 whole entry): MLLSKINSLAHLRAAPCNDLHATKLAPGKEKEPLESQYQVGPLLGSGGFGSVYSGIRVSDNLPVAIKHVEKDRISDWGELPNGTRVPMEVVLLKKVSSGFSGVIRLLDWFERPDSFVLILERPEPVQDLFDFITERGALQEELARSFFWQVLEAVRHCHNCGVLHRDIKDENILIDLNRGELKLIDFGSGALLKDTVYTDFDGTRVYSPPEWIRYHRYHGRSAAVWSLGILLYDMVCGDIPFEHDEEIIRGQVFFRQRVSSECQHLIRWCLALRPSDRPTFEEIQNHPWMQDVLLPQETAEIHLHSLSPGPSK

Structure (SMILES): C=C1CCCc2c(ccc3c2C(=O)C(=O)c2c(C)coc2-3)/C(C)=C/CCc2c1ccc1c2C(=O)C(=O)c2c(C)coc2-1 [NEO, Neoprzewaquinone A]
- IC50: 560 nM
